Test results: patent publication US20260137706A1, “METHODS OF TREATING INFLAMMATORY DISEASES” (INTERLINE THERAPEUTICS, INC., priority 2023, published 2026)
Read-outs that look alike come from different tables or passages of the source.

What was measured:
[1] = test system: NF-κB pathway (SEAP) in THP1-Dual cells; assay: THP-1 Dual cell SEAP assay (L18-MDP stimulated); type: cell-based; conditions: read-out: NF-κB THP1 IC50 bin
Method: THP1-Dual™ cells (InvivoGen Cat #thpd-nfis) allow simultaneous assessment of the NF-κB pathway, by monitoring the activity of secreted embryonic alkaline phosphatase (SEAP) as well as the IRF pathway, by assessing the activity of a secreted luciferase (Lucia). Cells were cultured according to manufacturers' recommendations. For the assay, cell concentration was adjusted to 7.14×10^5 cells/mL in assay media (RPMI 1640, 2 mM L-Glutamine, 25 mM HEPES, 10% fetal bovine serum (heat-inactivated for 30 min at 56° C.), Pen-Strep (100 U/mL)) and 35 µL of cell suspension (˜25,000 cells) per well were added to a flat bottom 384-well plate (white opaque). Plate was centrifuged at 300 g for 2 min, compounds were added in serial dilution series according to the plate layout (volumes ˜500 nL-0.0152 nL) and plate was incubated at 37° C. in 5% CO2 for 30 min. Using assay media, a L18-MDP stock solution, that results in a final concentration of 10 ng/mL L18-MDP in each well when adding 15 μL to each well, was prepared. 15 μL of L18-MDP stock solution was added to each well, while 15 μL of assay media was added to the negative control wells. Plates were subsequently incubated at 37° C. in 5% CO2 overnight (20-24 h).
For the SEAP assay: without disturbing the cells at the bottom of the well, 15 μL supernatant was transferred to a clear 384-well flat bottom plate and 35 μL QUANTI-Blue Solution per well was added. Following a 2 h incubation at 37° C., the optical density (OD) was measured at 620-655 nm using a microplate reader (PheraStar FS microplate reader with protocol for OD 620-655 nm).
Values of media-only wells were subtracted and % inhibition for each compound concentration relative to the DMSO/L18-MDP-treated controls was calculated. Inhibition values+/−SD were fitted by non-linear regression using Prism software (GraphPad PRISM Software) to calculate IC50 values.

[2] = molecular target: T1, binding of His-XIAP(BIR2)-avi fusion protein to GST-RIPK2 fusion protein (RIPK2/XIAP) (Homo sapiens, UniProt O43353); assay: RIPK2-XIAP binding competition PPI assay (TR-FRET); conditions: RIPK2/XIAP binding competition PPI assay; for Emax / PPI Amax bin: Amax; for Emax: read-out: PPI Amax bin; for IC50: read-out: PPI IC50 bin
T1 construct: made in house; host or cells: baculovirus infected Sf9 cells
Excerpt: The ability of selected compounds of Formula (I) to inhibit the binding of an His-XIAP(BIR2)-avi fusion protein to a GST-RIPK2 fusion protein was quantified employing the TR-FRET-based competition assay as described in the following paragraphs.
Recombinant fusion protein of N-terminal Glutathione-S-Transferase (GST) and a fragment of human RIPK2 (amino acids 1-310 of accession number 043353), expressed in baculovirus infected Sf9 cells, purified via glutathione affinity chromatography, was used as GST-RIPK2 fusion protein. Recombinant fusion protein of N-terminal 6×Histidine (His), a fragment of human XIAP (amino acids 152-231 of accession number P98170), and C-terminal avi tag, expressed in baculovirus infected Sf9 cells, purified via Nickel NTA affinity chromatography, was used as the His-XIAP(BIR2)-avi fusion protein.
For the assay, a working solution of 1 nM GST-RIPK2, 25 nM His-XIAP(BIR2)-avi, 6 nM Anti-His-XL665 […] (Revvity Catalogue No. 61HISXLB), and 0.5 nM Anti-GST-Tb (Revvity Catalogue No. 61GSTTLB) in 25 mM Tris-HCl 7.5, 0.5 mM ethylene glycol-bis(2-aminoethylether)-N,N,N′,N′-tetraacetic acid (EGTA), 10 mM magnesium chloride (MgCl2), 2.5 mM dithiothreitol (DTT), 0.01% (w/v) bovine serum albumin (BSA), 0.005% (w/v) Pluronic F-127 (Sigma), 0.5 mM sodium ortho-vanadate, 5 mM β-Glycerophosphate disodium salt hydrate (BGP) was prepared. 50 nL of a 100-fold concentrated solution of each test compound in DMSO was dispensed via acoustic dispensing into a white low volume 384-well microtiter plate (Perkin Elmer Catalogue No. 6008280). Subsequently, 5 μL of the assay working solution were added.
The resulting mixture was incubated 120 min at 23° C. Subsequently, the amount of complex formed by the GST-RIPK2, XIAP(BIR2)-avi, Anti-His-XL665, and Anti-GST-Tb was evaluated by measurement of the resonance energy transfer from the Tb-cryptate to the XL665. Therefore, the fluorescence emissions at 520 nm and 665 nm after excitation at 337 nm were measured in a TR-FRET reader, e.g. a Pherastar FS (BMG Labtechnologies, Offenburg, Germany) or an Envision (PerkinElmer). The ratio of the emissions at 665 nm and at 520 nm was taken as the measure of the amount of the complex. The data were normalized (assay reaction without inhibitor=0% activity, 50 nM of GSK583=−100% activity).
For the RIPK2/XIAP binding competition PPI assay Amax values, “A” denotes an Amax of ≥80%; “B” denotes an Amax of 80%>B≥55; “C” denotes an Amax of 55%>C>30; and “D” denotes an Amax of ≤30%.

T1 sequence (O43353 1-310 limits assumed): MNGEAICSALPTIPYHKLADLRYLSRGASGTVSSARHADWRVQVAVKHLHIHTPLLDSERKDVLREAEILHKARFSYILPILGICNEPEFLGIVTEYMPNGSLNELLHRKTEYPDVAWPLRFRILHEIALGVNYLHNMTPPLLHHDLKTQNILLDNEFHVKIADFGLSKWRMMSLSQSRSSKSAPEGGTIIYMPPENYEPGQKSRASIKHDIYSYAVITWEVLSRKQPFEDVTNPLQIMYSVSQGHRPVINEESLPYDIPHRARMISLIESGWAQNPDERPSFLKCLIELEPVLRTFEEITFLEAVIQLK

| Structure (SMILES) | IC50 ([1]; Homo sapiens, THP1-Dual) | Emax [2] | IC50 [2] | IC50 [1] | PPI Amax bin [2] |
| --- | --- | --- | --- | --- | --- |
| COc1c(F)cc(-c2cnc3cc(Cl)c(S(=O)(=O)C(C)(C)C)cn23)cc1NS(=O)(=O)c1cnn(C)c1 [Example 263, N-(5-(6-(tert-butylsulfonyl)-7-chloroimidazo[1,2-a]pyridin-3-yl)-3-fluoro-2-methoxyphenyl)-1-methyl-1H-pyrazole-4-sulfonamide] | < 0.05 µM | > 80% | < 0.001 µM | – | – |
| C[C@H](O)COc1cc2ncc(-c3ccc(N)nc3F)n2cc1S(=O)(=O)C(C)(C)C [Example 267, (S)-1-((3-(6-amino-2-fluoropyridin-3-yl)-6-(tert-butylsulfonyl)imidazo [1,2-a]pyridin-7-yl)oxy)propan-2-ol] | > 1 µM | > 80% | 0.0025 to 0.02 µM | – | – |
| COc1cc2ncc(-c3cc(F)c(OC)c(NS(=O)(=O)c4cc(C)sn4)c3)n2cc1S(=O)(=O)C(C)(C)C [Example 292, N-(5-(6-(tert-butylsulfonyl)-7-methoxyimidazo[1,2-a]pyridin-3-yl)-3-fluoro-2-methoxyphenyl)-5-methylisothiazole-3-sulfonamide] | 0.05 to 0.25 µM | 30 to 55% | < 0.001 µM | – | – |
| COc1cc2ncc(-c3cc(NS(=O)(=O)c4cnn(C)c4)c(OC)c(OC)c3)n2cc1N1CC(C)CC1=O (single isomer, unassigned) [Example 274] | – | > 80% | 0.0025 to 0.02 µM | 0.25 to 1 µM | – |
| COc1cc2ncc(-c3cc(F)c(OC)c(NCc4cnn(C)c4)c3)n2cc1S(=O)(=O)C(C)(C)C [Example 301, 5-(6-(tert-butylsulfonyl)-7-methoxyimidazo[1,2-a]pyridin-3-yl)-3-fluoro-2-methoxy-N-((1-methyl-1H-pyrazol-4-yl)methyl)aniline] | 0.05 to 0.25 µM | 55 to 80% | < 0.001 µM | – | – |
| COc1cc2ncc(-c3cc(Cl)c(OC)c(NS(=O)(=O)c4cnn(C)c4)c3)n2cc1S(=O)(=O)C(C)(C)C [Example 283, N-(5-(6-(tert-butylsulfonyl)-7-methoxyimidazo[1,2-a]pyridin-3-yl)-3-chloro-2-methoxyphenyl)-1-methyl-1H-pyrazole-4-sulfonamide] | < 0.05 µM | > 80% | < 0.001 µM | – | – |
| COc1cc2ncc(-c3cc(NS(=O)(=O)c4cnn(C)c4)c(OC)c(OC)c3)n2cc1N1CC2(COC2)CC1=O [Example 271, N-(2,3-dimethoxy-5-(7-methoxy-6-(7-oxo-2-oxa-6-azaspiro[3.4]octan-6-yl)imidazo[1,2-a]pyridin-3-yl)phenyl)-1-methyl-1H-pyrazole-4-sulfonamide] | > 1 µM | > 80% | 0.0025 to 0.02 µM | – | – |
| COc1c(F)cc(-c2cnc3cc(OC[C@H](C)O)c(S(=O)(=O)C(C)(C)C)cn23)cc1NS(=O)(=O)c1cnn(C)c1 [Example 264, (S)-N-(5-(6-(tert-butylsulfonyl)-7-(2-hydroxypropoxy)imidazo [1,2-a]pyridin-3-yl)-3-fluoro-2-methoxyphenyl)-1-methyl-1H-pyrazole-4-sulfonamide] | < 0.05 µM | > 80% | < 0.001 µM | – | – |
| CC(F)(CO)COc1cc2ncc(-c3cc(F)c(N)nc3F)n2cc1S(=O)(=O)C(C)(C)C (single isomer, unassigned) [Example 261] | – | – | 0.001 to 0.0025 µM | 0.05 to 0.25 µM | – |
| COc1cc2ncc(-c3cc(F)c(OC)c(NS(=O)(=O)c4cnc(C)o4)c3)n2cc1S(=O)(=O)C(C)(C)C [Example 290, N-(5-(6-(tert-butylsulfonyl)-7-methoxyimidazo[1,2-a]pyridin-3-yl)-3-fluoro-2-methoxyphenyl)-2-methyloxazole-5-sulfonamide] | > 1 µM | < 30% | > 0.02 µM | – | – |
| CC(F)(CO)COc1cc2ncc(-c3cc(Cl)c(N)nc3F)n2cc1S(=O)(=O)C(C)(C)C (single isomer, unassigned) [Example 266] | – | – | 0.001 to 0.0025 µM | 0.05 to 0.25 µM | A (an Amax of ≥80%) |
| COc1cc2ncc(-c3cc(F)c(OC)c(NC(C)c4cnn(C)c4)c3)n2cc1S(=O)(=O)C(C)(C)C (single isomer, unassigned) [Example 303] | – | – | 0.0025 to 0.02 µM | 0.25 to 1 µM | A (an Amax of ≥80%) |
| CCOc1cc2ncc(-c3cc(F)c(OC)c(NS(=O)(=O)c4cnn(C)c4)c3)n2cc1S(=O)(=O)C(C)C [Example 138, N-(5-(7-ethoxy-6-(isopropylsulfonyl)imidazo[1,2-a]pyridin-3-yl)-3-fluoro-2-methoxyphenyl)-1-methyl-1H-pyrazole-4-sulfonamide] | < 0.05 µM | > 80% | < 0.001 µM | – | – |
| CCS(=O)(=O)Nc1cc(-c2cnc3cc(OC[C@H](C)O)c(S(=O)(=O)C(C)(C)C)cn23)cc(F)c1OC [Example 270, (S)-N-(5-(6-(tert-butylsulfonyl)-7-(2-hydroxypropoxy)imidazo[1,2-a]pyridin-3-yl)-3-fluoro-2-methoxyphenyl) ethanesulfonamide] | < 0.05 µM | 55 to 80% | < 0.001 µM | – | – |
| COc1cc2ncc(-c3cc(C)c(OC)c(NS(=O)(=O)c4cnn(C)c4)c3)n2cc1S(=O)(=O)C(C)(C)C [Example 286, N-(5-(6-(tert-butylsulfonyl)-7-methoxyimidazo[1,2-a]pyridin-3-yl)-2-methoxy-3-methylphenyl)-1-methyl-1H-pyrazole-4-sulfonamide] | 0.05 to 0.25 µM | > 80% | < 0.001 µM | – | – |
| COc1cc2ncc(-c3cc(F)c(OC)c(NS(=O)(=O)c4cnn(C)c4)c3)n2cc1C(F)(F)F [Example 136, N-(3-fluoro-2-methoxy-5-(7-methoxy-6-(trifluoromethyl)imidazo[1,2-a]pyridin-3-yl)phenyl)-1-methyl-1H-pyrazole-4-sulfonamide] | 0.25 to 1 µM | > 80% | 0.0025 to 0.02 µM | – | – |
| COc1cc2ncc(-c3cc(F)c(OC)c(NS(=O)(=O)c4cnn(C)c4)c3)n2cc1S(=O)(=O)C(C)C [Example 262, N-(3-fluoro-5-(6-(isopropylsulfonyl)-7-methoxyimidazo[1,2-a]pyridin-3-yl)-2-methoxyphenyl)-1-methyl-1H-pyrazole-4-sulfonamide] | < 0.05 µM | > 80% | < 0.001 µM | – | – |
| COc1cc2ncc(-c3cccc(NS(=O)(=O)c4cnn(C)c4)c3)n2cc1S(=O)(=O)C(C)(C)C [Example 294, N-(3-(6-(tert-butylsulfonyl)-7-methoxyimidazo[1,2-a]pyridin-3-yl)phenyl)-1-methyl-1H-pyrazole-4-sulfonamide] | 0.05 to 0.25 µM | > 80% | < 0.001 µM | – | – |
